Where “and” joins values, the source holds several entries; their conditions need not be identical. Identical values can stand only once.
How the values were obtained:
[1] = AFM force measurement: non-specific interaction with bare mica; assay type: binding; details: bare mica substrate
Description: (§1) Non-specific interactions between functionalized AFM tips with both bare and bovine serum albumin (BSA) immobilized mica substrates were examined. The functionalized AFM tips generally formed featureless force-distance curves on these surfaces. Only 6.1% of collected curves show unbinding ruptures from the nonspecific TBA-BSA interaction (median force 14.4 pN) and 5.6% from the nonspecific RGD-BSA interaction (median force 15.3 pN) around the expected distance, respectively. The functionalized tips interacted with the bare mica surfaces with even lower statistics and smaller unbinding forces.
(§2) An Agilent AFM 5500 (with inverted light microscope) system was used for the AFM experiments. Both force measurement and recognition imaging were carried out in 1×PBS buffer (pH 7.4). For force measurements, Veeco probes (Bicker, SiN tips) were used, having a force constant 0.05 N/m and a gold back coating, and the loading rate was 25000 pN/s.
(§3) Topography images, recognition images and force spectra were recorded using Agilent PicoView software. The force-distance curves were analyzed in PicoView, and the corresponding unbinding forces were plotted in the form of histograms and fitted into the Gaussian function using MathWorks-MATLAB.

human α-thrombin = target: T1, human α-thrombin (Homo sapiens, UniProt P00734); assay: AFM force measurement: unbinding of tip-tethered affinity molecule from thrombin immobilized on mica; assay type: binding
T1 construct: protein cognates human α-thrombin and human α5β1-integrin immobilized on mica surfaces; purchased Abeam (so in the source)
Description: (§4) The attachment chemistry was validated using the functionalized SiN tips to measure forces of affinity molecules unbinding from their respective protein cognates. The protein sample was immobilized on APS-modified mica substrate using glutaraldehyde as a crosslinker (for procedure, see Wang, et al. Biophys. J. 2002, 83, 3619-3625). Initially, about 1000 force-distance curves were collected from each of measurement experiments with either D-1b against thrombin or P-1b against integrin α5β1. The solid lines in Panel A and D of FIG. 14 show exemplary retracting force-distance curves used for data analysis, which accounts for more than one fourth of the collections. The selection was based on an assumption that a rupture directly related to unbinding of an affinity molecule from its protein cognate is likely to take place around the distance corresponding to the stretched length of a PEG linker (˜13.5 nm in this instance). A distance histogram was created from each data set (Panel B and E of FIG. 14). […] Ratios of the rupture events between these two regions were 1:1.2 for the TBA tip against the thrombin protein and 1:1.3 for the RGD tip against the integrin protein respectively. After finishing the initial measurements, a thrombin or integrin solution was injected to the flow cell accordingly, and then another set of force curves were collected to determine the specificity of unbinding (see, for example, Lee, et al. Micron 2007, 38, 446-461). A disappearance of the specific unbinding ruptures from the force-distance curves was anticipated because the interactions of the affinity molecule tethered to the tip with its cognates on the substrate were blocked by protein from the solution. In fact, force-distance curves were obtained appearing like the dotted lines in Panel A and D of FIG. 14. Overall, the ruptures around the longer distances were reduced to a great extent and those around the shorter distances remained (Panel C and F of FIG. 14) in comparison with those prior to blocking. The rupture ratios between these two regions were changed to 12.3:1 for the TBA tip against the thrombin modified surface and 12:1 for the RGD tip against the integrin modified surface.
(§5) AFM tips (a batch of four or five) were first immersed in ethanol for five minutes, dried with ultrapure argon, and then treated with ultraviolet-ozone in a Boekel UV cleaner for 15 minutes and oxygen plasma (medium power) in a Harrick Plasma Cleaner for 2 minutes. These tips were immediately placed in a petri dish, to which an aqueous solution of compound 3 (50 mM) was added. After one hour, the tips were taken out, rinsed with water thrice, and dried gently with nitrogen. […]

[2] = target: bovine serum albumin (BSA) (Bos taurus, UniProt P02769); assay: AFM force measurement: non-specific interaction with BSA immobilized mica; assay type: binding; details: BSA on the substrate (non-specific control)
Description: as §1
Freshly cleaved mica sheets (1.5×2.0 cm^2) were immersed in an aqueous solution of APS (50 mM). After one hour, the mica sheets were taken out and rinsed thoroughly with water thrice. In a humid surrounding, an aqueous solution of glutaraldehyde (1 mM, 200 μL) was added on the APS mica sheet. After 10 minutes, the mica substrates were rinsed with water thrice, and then a solution of protein in a 1×PBS buffer (3 μL) was placed on it, incubated for one hour, and rinsed with the 1×PBS buffer thrice. In general, protein concentrations were made around 10 ng/μL for force measurements and 0.05 ng/μL for recognition imaging. It should be noted that integrin we used was a lyophilized product from a solution containing: 0.26 mg/ml α5β1, 20 mM Tris-HCl pH 7.5, 150 mM NaCl, 2 mM MgCl2, 0.2% Triton X-100, which was reconstituted by dissolving it in 1×PBS buffer.
as §2, §3

[3] = Stability of linkers, NMR monitoring and storage; assay type: physicochemical; details: for stability by NMR monitoring: pure form and in chloroform, room temperature, at least two days; for storage stability: stored at −78° C. for one year
Description: The molecular anchor (3) was synthesized simply by reacting APS (1) with 2-(cyclooct-2-yn-1-yloxy)acetic acid (2) in the presence of 1-ethyl-3-(3-dimethylaminopropyl)carbodiimide (EDC, FIG. 10). The desired product was separated as a white solid by silica gel chromatography with a yield of 60%. The molecular linker for RI (6a, FIG. 4) was synthesized starting from hexaethylene glycol. First, azido-(CH2CH2O)6-Ts (4, Ts=tosyl) was synthesized in a multi-gram scale (Loiseau, F. A. et al. J. Org. Chem. 2004, 69, 639-647; Svedhem, S.; et al. J. Org. Chem. 2001, 66, 4494-4503). The azido-(CH2CH2O)12—OH (5) was prepared in a 71% yield by reacting 4 with sodium hexaethylene glycoxide (3 times excess) that was generated in situ by treating hexaethylene glycol with sodium hydride. In presence of potassium t-butoxide, 5 reacted with divinyl sulfone to furnish the desired product 6a in a yield of 64%. In the same manner, the linker azido-(CH2CH2O)36-vinyl sulfone (6b) was synthesized by reacting azido-dPEG®—alcohol with divinyl sulfone in a yield close to that of 6a (FIG. 5). These two products were characterized with FTIR, NMR, and mass spectroscopy. Although vinyl sulfones may react with azides in presence of CuSO4 and sodium ascorbate, it was determined by NMR monitoring that 6a and 6b were stable both in its pure form and in chloroform at room temperature at least for two days. […] Maleimide is another reactive group that is functionally similar to vinyl sulfone in bioconjugation, but it may be less amenable to coexisting with azide because a [3+2]cycloaddition could spontaneously take place between these two functions in some circumstances. In addition, maleimide can undergo the thiol exchanges and ring hydrolysis (above pH 8), which may complicate outcomes of the conjugating reaction. Thus, vinyl sulfone was chosen as a Michael addition receptor of thiols in this attachment chemistry.

[4] = Water contact angle of derivatized silicon oxide surfaces; assay type: physicochemical; details: water on derivatized silicon oxide surface
Description: (§6) A silicon substrate (1×1 cm2) was cleaned thoroughly with ethanol, dried by nitrogen, and then treated with oxygen plasma for two minutes using Harrick Plasma Cleaner (medium power). APTES was deposited on the substrate using a vapor deposition method (H. Wang, et al. Biophys. J., 2002, 83, 3619-3625). The aminated substrate was immersed in a solution of compound 2 (1 mg/mL). NHS/EDC (1 mg each) and triethyl amine (5 μL) in dry dicholoromethane. After three hours, the substrates were taken out and rinsed with dry dichloromethane (twice) followed by ethanol (twice) and dried with argon.
(§7) A silicon substrate (1×1 cm2) was cleaned as described with respect to reactions 1-a nd 1-b, and then immersed in an aq. solution of silatrane derivative 3 (50 mM). After one hour, the substrates were taken out and rinsed five times with deionized water and dried with argon.
(§8) Contact angles were measured using Kruss EasyDrop. For the measurement, 2 μL of water droplets were deposited on different positions of a substrate placed on the sample plate and contact angles were measured in the video window of manufacturer's DSA software. Thicknesses of the monolayers were measured using Gaertner Scientific Corporation ellipsometer. For the thickness calculation, the refractive indices of both silicon oxide layers and organic layers were assumed to be 1.46 (T. Nguyen et al. J. Adhesion, 1995, 48, 169-194). Five different arbitrary positions on the substrate were chosen and the average value was taken. The thickness of the monolayer was determined by subtracting the silicon oxide thickness from the measured one.

[5] = Ellipsometric thickness of monolayers on silicon oxide; assay type: physicochemical; details: organic layer on silicon oxide, ellipsometry
Description: as §6, §7, §8

human α5β1 integrin = target: T2, human α5β1 integrin (Homo sapiens, UniProt P05556+P08648); assay: AFM force measurement: unbinding of tip-tethered affinity molecule from integrin immobilized on mica; assay type: binding
T2 construct: purchased YO Proteins AB (Sweden)
Description: as §4, §5

[6] = tip blocked with thrombin solution, thrombin on mica
[7] = tip blocked with integrin solution, integrin on mica

T2 sequence (P08648 42-894 limits assumed): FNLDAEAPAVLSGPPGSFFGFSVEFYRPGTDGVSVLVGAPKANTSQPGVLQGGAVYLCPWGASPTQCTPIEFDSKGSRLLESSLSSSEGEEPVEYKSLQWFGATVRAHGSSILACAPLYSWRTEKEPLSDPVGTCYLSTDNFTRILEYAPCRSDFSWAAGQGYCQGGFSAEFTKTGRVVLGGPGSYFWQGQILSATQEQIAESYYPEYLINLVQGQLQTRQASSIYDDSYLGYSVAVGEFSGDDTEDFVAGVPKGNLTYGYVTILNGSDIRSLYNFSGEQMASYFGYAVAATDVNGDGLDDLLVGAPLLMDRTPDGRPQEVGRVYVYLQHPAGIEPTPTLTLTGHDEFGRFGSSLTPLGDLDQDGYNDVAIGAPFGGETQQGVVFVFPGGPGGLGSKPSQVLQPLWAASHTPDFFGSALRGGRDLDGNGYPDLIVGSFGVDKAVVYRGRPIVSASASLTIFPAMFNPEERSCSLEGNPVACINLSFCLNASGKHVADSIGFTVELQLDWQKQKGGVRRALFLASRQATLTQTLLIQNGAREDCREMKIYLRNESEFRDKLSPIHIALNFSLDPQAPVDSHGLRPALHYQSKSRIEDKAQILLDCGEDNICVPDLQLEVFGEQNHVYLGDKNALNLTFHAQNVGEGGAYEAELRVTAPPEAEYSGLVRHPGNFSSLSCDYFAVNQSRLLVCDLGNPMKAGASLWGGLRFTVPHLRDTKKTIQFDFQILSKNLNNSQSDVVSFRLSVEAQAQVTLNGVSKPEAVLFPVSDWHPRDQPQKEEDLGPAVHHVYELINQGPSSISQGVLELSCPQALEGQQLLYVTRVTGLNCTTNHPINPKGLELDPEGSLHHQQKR
T2 sequence (P08648 895-1049 partner limits assumed): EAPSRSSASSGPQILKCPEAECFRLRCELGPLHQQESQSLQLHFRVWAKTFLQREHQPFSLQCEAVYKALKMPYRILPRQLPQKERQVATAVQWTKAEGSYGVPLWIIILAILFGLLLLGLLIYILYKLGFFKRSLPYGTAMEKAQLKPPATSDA
T2 sequence (P05556 21-798): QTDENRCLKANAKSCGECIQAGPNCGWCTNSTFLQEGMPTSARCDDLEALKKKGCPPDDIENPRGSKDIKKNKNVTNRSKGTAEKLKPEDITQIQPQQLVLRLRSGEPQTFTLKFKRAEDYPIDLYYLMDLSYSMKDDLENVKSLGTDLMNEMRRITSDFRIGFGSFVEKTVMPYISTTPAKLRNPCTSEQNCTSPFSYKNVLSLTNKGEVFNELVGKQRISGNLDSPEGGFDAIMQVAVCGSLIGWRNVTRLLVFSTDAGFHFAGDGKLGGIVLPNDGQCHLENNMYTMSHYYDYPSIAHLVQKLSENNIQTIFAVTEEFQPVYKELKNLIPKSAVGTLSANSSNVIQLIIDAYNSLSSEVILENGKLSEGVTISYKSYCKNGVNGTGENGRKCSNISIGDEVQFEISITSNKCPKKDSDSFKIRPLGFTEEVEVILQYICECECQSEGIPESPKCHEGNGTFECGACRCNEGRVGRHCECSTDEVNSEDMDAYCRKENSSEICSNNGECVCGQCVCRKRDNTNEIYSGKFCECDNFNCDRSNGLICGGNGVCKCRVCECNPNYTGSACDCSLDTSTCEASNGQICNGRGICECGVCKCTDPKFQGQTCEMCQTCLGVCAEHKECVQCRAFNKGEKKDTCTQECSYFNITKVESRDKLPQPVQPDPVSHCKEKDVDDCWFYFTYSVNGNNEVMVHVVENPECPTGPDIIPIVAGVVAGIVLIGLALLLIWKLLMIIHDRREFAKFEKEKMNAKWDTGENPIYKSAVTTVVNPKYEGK
bovine serum albumin (BSA), sequence (P02769 25-607): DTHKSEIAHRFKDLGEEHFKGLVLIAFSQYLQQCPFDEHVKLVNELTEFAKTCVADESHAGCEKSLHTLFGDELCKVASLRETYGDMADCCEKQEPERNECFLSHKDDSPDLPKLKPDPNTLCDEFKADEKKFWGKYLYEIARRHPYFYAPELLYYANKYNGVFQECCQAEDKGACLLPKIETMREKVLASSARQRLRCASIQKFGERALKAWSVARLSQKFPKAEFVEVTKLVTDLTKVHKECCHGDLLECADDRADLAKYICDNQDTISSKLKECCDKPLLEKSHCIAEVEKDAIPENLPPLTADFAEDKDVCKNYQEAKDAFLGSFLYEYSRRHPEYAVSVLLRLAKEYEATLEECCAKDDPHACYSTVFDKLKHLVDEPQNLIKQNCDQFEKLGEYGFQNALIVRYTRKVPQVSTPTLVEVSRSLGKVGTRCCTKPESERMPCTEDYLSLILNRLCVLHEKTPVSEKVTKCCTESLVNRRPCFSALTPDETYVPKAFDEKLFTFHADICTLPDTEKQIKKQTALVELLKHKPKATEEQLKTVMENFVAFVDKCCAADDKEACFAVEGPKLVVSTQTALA

For 5′-GGTTGGTGTGGTTGG [TBA], the “Unbinding events (%)” value [1] was 3.0%, the “Unbinding force (pN)” value [1] was 6.9 ± 3.8 pN and the “Unbinding force (pN)” value (human α-thrombin; functionalized SiN tip against thrombin on mica, Gaussian fit of force histogram, loading rate 25000 pN/s) was 80.2 ± 34.5 pN. For the same compound, the “Unbinding events (%)” value (human α-thrombin; functionalized SiN tip against thrombin on mica, ruptures around the specific unbinding distance over total force curves) was 26.5%, the “Unbinding events (%)” value (human α-thrombin; [6]) was 7.0% and the “Unbinding force (pN)” value (human α-thrombin; [6]) was 15.6 ± 12.9 pN. For the same compound, the “Unbinding events (%)” value [2] was 6.1% and the “Unbinding force (pN)” value [2] was 14.4 pN and 14.4 ± 9.4 pN.
For `C=CS(=O)(=O)CCOCCOCCOCCOCCOCCOCCOCCOCCOCCOCCOCCOCCN=[N+]=[N-]` [6a, 1-Azido-35-(2-(vinylsulfonyl)ethoxy)-3n33^3-undecaoxapentatriacontane], the “stability by NMR monitoring” value [3] was “stable” and the storage stability [3] was “no degradation has been observed”.
In the case of `C=CS(=O)(=O)CCOCCOCCOCCOCCOCCOCCOCCOCCOCCOCCOCCOCCOCCOCCOCCOCCOCCOCCOCCOCCOCCOCCOCCOCCOCCOCCOCCOCCOCCOCCOCCOCCOCCOCCOCCOCCN=[N+]=[N-]` [6b, 1-Azido-35-(2-(vinylsulfonyl)ethoxy)-3n105^3-pentatricontaoxaheptahectane], the “stability by NMR monitoring” value [3] was “stable” and the storage stability [3] was “no degradation has been observed”.
For `CCO[Si](CCCN)(OCC)OCC` [APTES, (3-Arninopropyl)triethoxysilane], the “Contact Angle (°)” value [4] was ~46 ° and the “Thickness (Å)” value [5] was “about 7.3 Å”.
In the case of `O=C(O)COC1C#CCCCCC1` (centres unmarked) [compound 2, 2-(cyclooct-2-yn-1-yloxy)acetic acid], the “Contact Angle (°)” value [4] was 76 ° and the “Thickness (Å)” value [5] was ~15.9 Å.
For `O=C(COC1C#CCCCCC1)NCCC[Si-]123OCC[N+]1(CCO2)CCO3` (centres unmarked) [compound 3, N-(3-(silatranyl)propyl)-2-(cyclooct-2-yn-1-yloxy)acetamide], the “Contact Angle (°)” value [4] was ~78 ° and the “Thickness (Å)” value [5] was 15.3 Å.
For cyclo(RGDfC), the “Unbinding events (%)” value (human α5β1 integrin; functionalized SiN tip against integrin on mica) was 29.4%, the “Unbinding force (pN)” value (human α5β1 integrin; functionalized SiN tip against integrin on mica, Gaussian fit, loading rate 25000 pN/s) was 48.0 ± 27.8 pN and the “Unbinding events (%)” value (human α5β1 integrin; [7]) was 6.7%. For the same compound, the “Unbinding force (pN)” value (human α5β1 integrin; [7]) was 11.1 ± 10.7 pN, the “Unbinding events (%)” value [1] was 2.5% and the “Unbinding force (pN)” value [1] was 6.7 ± 4.0 pN. For the same compound, the “Unbinding events (%)” value [2] was 5.6% and the “Unbinding force (pN)” value [2] was 15.3 pN and 15.3 ± 14.4 pN.
